Source: patent US10526347B2, “3-(3H-imidazo[4,5-B]pyridin-2-yl)-1H-pyrazolo[3,4-B]pyridine and therapeutic uses thereof” (Samumed, LLC, priority 2014, dated 2020)

What was measured:
Type in all cases: cell-based
[1] = tested on: primary human mesenchymal stem cells (hMSCs); experiment: Chondrogenesis induction in primary human mesenchymal stem cells (chondrogenic nodules, Rhodamine B / Nile Red); settings: 6 days; for Max. Activity as % TGF-β3 activity: positive control TGF-β3 10 ng/mL, nodule number normalized to DMSO; for EC (100% of TGF-beta3 activity): Homo sapiens, Mesenchymal stem cells, 144 h, concentration required to induce chondrogenesis equivalent to TGF-β3 10 ng/mL, read-out: Conc (nM) of 100% TGF-β3 activity
Procedure: The above synthesized compounds were screened using primary human mesenchymal stem cells (hMSCs) to determine their ability to induce chondrogenesis (process by which cartilage is developed).
Primary human mesenchymal stem cells (hMSCs) were purchased from Lonza (Walkersville, Md.) and expanded in Mesenchymal Stem Cell Growth Media (Lonza). Cells between passage 3 and 6 were used for the experiments.
Each compound was dissolved in DMSO as a 10 mM stock and used to prepare compound source plates. Serial dilution (1:3, 6-point dose-response curves from 2700 nM to 10 nM) and compound transfer was performed using the ECHO 550 (Labcyte, Sunnyvale, Calif.) into 96-well clear bottom assay plates (Greiner Bio-One) with appropriate DMSO backfill for a final DMSO concentration of 0.03%. hMSCs were plated at 20,000 cells/well in 250 μL/well Incomplete Chondrogenic Induction Medium (Lonza; DMEM, dexamethasone, ascorbate, insulin-transferrin-selenium [ITS supplement], gentamycin-amphotericin [GA-1000], sodium pyruvate, proline and L-glutamine). TGF-β3 (10 ng/mL) was used as a positive control for differentiation while negative control wells were treated with 75 nL DMSO for normalization and calculating EC50 values. Cells were incubated at 37° C. and 5% CO2 for 6 days. To image chondrogenic nodules, the cells were fixed using 4% formaldehyde (Electron Microscopy Sciences), and stained with 2 μg/mL Rhodamine B (Sigma-Aldrich) and 20 μM Nile Red (Sigma-Aldrich) [Johnson K., et. al, A Stem Cell-Based Approach to Cartilage Repair, Science, (2012), 336(6082). 717-721]. The nodules imaged (4 images per well at 4× magnification) by excitation at 531 nm and emission at 625 nm and quantified using the CellInsight CX5 (Thermo Scientific). Number of nodules in each well was normalized to the average of 3 DMSO treated wells on the same plate using Excel (Microsoft Inc.). The normalized averages (fold change over DMSO) of 3 replicate wells for each compound concentration were calculated. Due to solubility limitations of some of the compounds, curve fitting was incomplete leading to inaccurate EC50 determinations.
Using TGF-β3 as a positive control, the concentration of test compounds required to induce equivalent levels of chondrogenesis is reported. In addition, the maximum activity of each compound and the respective dose that each compound reached maximum chondrogenesis activity is reported.

[2] = tested on: Wnt activity (SW480 colon carcinoma cells stably expressing the Sp5-Luc reporter gene); experiment: Sp5-Luc reporter gene screening assay for Wnt activity; settings: Homo sapiens
In short: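 The SW480 cells carry a lentiviral luciferase reporter driven by a Sp5 promoter with eight TCF/LEF sites. They were plated at 10,000 cells/well in 10% FCS overnight, then pinned with 50 nl of 3-fold dilutions (10 mM top source concentration) into 50 μl.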

[3] = tested on: primary human fibroblasts derived from IPF patients (LL29 cells); experiment: Inhibition of the fibrotic process in TGF-β1 treated IPF patient fibroblasts (αSMA staining); settings: Fibroblast, 96 h, LL29 cells treated with TGF-β1 (20 ng/mL), 4 days, read-out: Inhibition of fibrosis EC50
In short: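 LL29 IPF lung fibroblasts in F12 with 1% FBS, compound (11-point, 10 μM to 1.87 nM, 0.1% DMSO) plus TGF-β1 20 ng/mL for 4 days at 37° C. αSMA-positive % of SYTOX-negative cells by immunofluorescence imaging, normalized to TGF-β1 wells; EC50 from non-linear regression of triplicates.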

SMILES: Cc1ccncc1-c1cnc2[nH]nc(-c3nc4c(-c5cc(F)cc(CNS(C)(=O)=O)c5)ccnc4[nH]3)c2c1 [Compound 393, N-(3-Fluoro-5-(2-(5-(4-methylpyridin-3-yl)-1H-pyrazolo[3,4-b]pyridin-3-yl)-3H-imidazo[4,5-b]pyridin-7-yl)benzyl)methanesulfonamide]
- Max. Activity as % TGF-β3 activity [1]: 100%
- EC (100% of TGF-beta3 activity) [1]: 140 nM
- IC50 [2]: 20.6 nM
- EC50 [3]: 674 nM

SMILES: CCCC(=O)Nc1cncc(-c2cnc3[nH]nc(-c4nc5c(-c6ccsc6)ccnc5[nH]4)c3c2)c1 [Compound 249, N-(5-(3-(7-(Thiophen-3-yl)-3H-imidazo[4,5-b]pyridin-2-yl)-1H-pyrazolo[3,4-b]pyridin-5-yl)pyridin-3-yl)butyramide]
- EC (100% of TGF-beta3 activity) [1]: 31.9 nM
- IC50 [2]: 2.7 nM
- EC50 [3]: 35 nM

SMILES: Fc1cccc(-c2ccnc3[nH]c(-c4n[nH]c5ncc(-c6cn[nH]c6)cc45)nc23)c1 [Compound 911, 3-(7-(3-Fluorophenyl)-3H-imidazo[4,5-b]pyridin-2-yl)-5-(1H-pyrazol-4-yl)-1H-pyrazolo[3,4-b]pyridine]
- Max. Activity as % TGF-β3 activity [1]: 100%
- EC (100% of TGF-beta3 activity) [1]: 110 nM
- IC50 [2]: 30 nM
- EC50 [3]: 29 nM

SMILES: Nc1cncc(-c2cnc3[nH]nc(-c4nc5c(-c6ccccc6F)ccnc5[nH]4)c3c2)c1 [Compound 45, 5-(3-(7-(2-Fluorophenyl)-3H-imidazo[4,5-b]pyridin-2-yl)-1H-pyrazolo [3,4-b]pyridin-5-yl)pyridin-3-amine]
- Max. Activity as % TGF-β3 activity [1]: 300%
- EC (100% of TGF-beta3 activity) [1]: 59.9 nM
- IC50 [2]: 3.7 nM
- EC50 [3]: ≤ 9 nM

SMILES: CCC(=O)Nc1cncc(-c2cnc3[nH]nc(-c4nc5c(N6CCCCC6)ccnc5[nH]4)c3c2)c1 [Compound 133, N-(5-(3-(7-(Piperidin-1-yl)-3H-imidazo[4,5-b]pyridin-2-yl)-1H-pyrazolo[3,4-b]pyridin-5-yl)pyridin-3-yl)propionamide]
- Max. Activity as % TGF-β3 activity [1]: 300%
- EC (100% of TGF-beta3 activity) [1]: 317 nM
- IC50 [2]: 36.6 nM
- EC50 [3]: 853 nM

SMILES: CCC(=O)Nc1cncc(-c2cnc3[nH]nc(-c4nc5c(-c6cccs6)ccnc5[nH]4)c3c2)c1 [Compound 285, N-(5-(3-(7-(Thiophen-2-yl)-3H-imidazo[4,5-b]pyridin-2-yl)-1H-pyrazolo[3,4-b]pyridin-5-yl)pyridin-3-yl)propionamide]
- EC (100% of TGF-beta3 activity) [1]: 48.9 nM
- IC50 [2]: 3.3 nM
- EC50 [3]: ≤ 9 nM
